Results: patent publication US20020183384A1, “Methods of treating nuclear factor-kappa B mediated diseases and disorders” (priority 2001, published 2002)
Read-outs that look alike come from different tables or passages of the source.

Tested on: NF-κB mediated transcription
Assay: NF-κB driven β-lactamase reporter assay in ECV-304 NF-κB.βlaZ cells (AURORA CCF2 fluorescence)
Type: cell-based, human
Conditions: 10 μM compound, ECV-304 NF-κB.βlaZ cells stimulated with 10 ng/mL TNF-α or 100 pg/mL IL-1β, 6 hours at 37° C., inhibition of maximum blue/green ratio; for inhibition at 10 µM: Homo sapiens, read-out: Percent Inhibition at 10 μM
Excerpt: Introduction: Described below is an in vitro, cell-based, high throughput screening assay that reliably identifies inhibitors of NF-κB mediated transcription.
The assay takes advantage of AURORA (Aurora Bioscience Corporation, La Jolla, Calif.) fluorescence technology. Endothelial cell vein-304 (ECV-304) cells, an endothelial-like immortalized cell type, may be stably transfected with a plasmid vector containing the cDNA for the enzyme β-lactamase (under the control of a basal promoter, Stratagene pNFκB-luc vector) and 5 copies of an human immunodeficiency virus-1 (HIV-1) NF-κB binding site. ECV-304 cells are described by Takahashi K. et al. in Spontaneous Transformation and Immobilization of Human Endothelial Cells, In Vitro Cell. Dev. Biol. 1990;25:265-274. Activation of NF-κB in ECV-304 by cytokines such as TNF-α or interleuken-1 beta (IL-1β) results in the production of β-lactamase, which cleaves a green fluorescent substrate (excitation/emission wavelengths 395 nm1530 nm) to yield a blue fluorescent product (excitation/emission wavelengths 395 nm/460 nm). Visually, the uncleaved green fluorescent substrate is sequestered intracellularly and emits green fluorescence, while the cleaved product emits blue fluorescence. Fluorescence is quantitated spectrophotometrically, and the spectral intensity of blue fluorescence versus green fluorescence can be used to calculate the degree of activation of NF-κB.
The assay was performed as outlined here and described in detail below. ECV-304 cells permanently transfected with the NF-κB driven β-lactamase gene (ECV-304 NF-κB.βlaZ) were plated in clear-bottom, black 96-well plates (1.25×10^4 cells/well) in media-199 (M-199) media containing 2% fetal bovine serum (FBS). […] The AURORA fluorescent disclosing reagent was then added. After one additional hour, the plates were read in a fluorometer at the blue 395 nm/460 nm (excitation/emission) and green 395 nm/530 nm wavelengths. Then the blue/green emission ratio was calculated. […] An IC50 for said sulfonylaminocarbonyl derivative was determined from a dose-response curve. This assay was designed to be optionally run in either high or low throughput screening modes.
Five copies of the HIV-1 NF-κB binding site (5′-[…]-3′) along with a TATA box were inserted into the EcorRI/BamHI sites of plasmid pMCRBlaZ to create plasmid p5×KBBlaZ, which procedure is illustrated in Scheme 1 below. [formula]
Cells were selected for antibiotic resistance with Zeocin for approximately 2 weeks. After the stable population had been expanded to a significant number of cells, it was stimulated with IL-1β and stained with AURORA CCF2 dye, a membrane permeant, intracellularly-trapped, fluorescent substrate. Cells that fluoresced blue (indicating a positive response of the NF-κB/β-lactamase reporter to stimulation by IL-1β) in the stimulated/stained population were then sorted by flow cytometry into a pool. The pool was expanded and stained with CCF2, and then the cells that fluoresced green from this unstimulated population (indicating a low background of the NF-κB/β-lactamase reporter construct) were cloned by flow cytometry after adding 1 cell per well in 96-well plates. Clones were allowed to expand. Each cloned cell line was then examined for fold stimulation after stimulation with IL-1β using a CCF2 reporter assay, and these stimulated cells were compared to unstimulated cells.
Cells: ECV-304 NF-κB β-Lactamase clone 1E8
Inhibitors: Prepared stock solutions of aminosulfonyl derivatives at 10 mM concentration in DMSO;
c) Added 10 μL of B into appropriate well in assay plate (the final concentration of drug is 10 μM), and […]

Structure (SMILES) | inhibition at 10 µM (ECV-304, 6 h) [%] | inhibition at 10 µM [%] | also measured
CCCCCCCCCCCCOC(=O)NS(=O)(=O)Nc1c(C(C)C)cccc1C(C)C [Example 53, Carbamic acid, [[[2,6-bis(1-methylethyl)phenyl]amino]sulfonyl]-, dodecyl ester] | – | – | Percent Inhibition at 10 μM (10 µM): 61.31%
COC(=O)NS(=O)(=O)Nc1c(C(C)C)cccc1C(C)C [Example 54, Carbamic acid, [[[2,6-bis(1-methylethyl)phenyl]amino]sulfonyl]-, methyl ester] | < 10 | – | –
CCCCCCCCCCCCOC(=O)NS(=O)(=O)Oc1c(C(C)C)cccc1C(C)C [Example 55, Carbamic acid, [[2,6-bis(1-methylethyl)phenoxy]sulfonyl]-, dodecyl ester] | 55.1 | – | –
COC(=O)NS(=O)(=O)Oc1c(C(C)C)cccc1C(C)C [Example 56, Carbamic acid, [[2,6-bis(1-methylethyl)phenoxy]sulfonyl]-, methyl ester] | – | < 10 | –
CCCCCCOS(=O)(=O)NC(=O)Oc1c(C(C)C)cccc1C(C)C [Example 57, Carbamic acid, [(hexyloxy)sulfonyl]-, 2,6-bis(1-methylethyl)phenyl ester] | – | 20.4 | –
CC(C)c1cccc(C(C)C)c1OC(=O)NS(=O)(=O)N1CCOCC1 [Example 58, Carbamic acid, (4-morpholinylsulfonyl)-, 2,6-bis(1-methylethyl)phenyl ester] | – | < 10 | –
CC(C)c1cccc(C(C)C)c1OC(=O)NS(=O)(=O)N1CCCCC1 [Example 59, Carbamic acid, (1-piperidinylsulfonyl)-, 2,6-bis(1-methylethyl)phenyl ester] | – | < 10 | –
CCCCCCCCCCCCCCCCCCOS(=O)(=O)NC(=O)Nc1c(C(C)C)cccc1C(C)C [Example 60, Sulfamic acid, [[[2,6-bis(1-methylethyl)phenyl]amino]carbonyl]-, octadecyl ester] | < 10 | – | –
CCCCCCCCCCCCOC(=O)NS(=O)(=O)OCCCCCCCCCCCC [Example 61, Carbamic acid, [(dodecyloxy)sulfonyl]-, dodecyl ester] | 27.4 | – | –
CC(C)c1cccc(C(C)C)c1OC(=O)NS(=O)(=O)N(C(C)C)C(C)C [Example 62, Carbamic acid, [[bis(1-methylethyl)amino]sulfonyl]-, 2,6-bis(1-methylethyl)-phenyl ester] | – | < 10 | –
CC(C)c1cccc(C(C)C)c1NC(=O)NS(=O)(=O)N(C(C)C)C1CCCCC1 [Example 63, Urea, N-[2,6-bis(1-methylethyl)phenyl]-N′-[[cyclohexyl(1-methylethyl)amino]-sulfonyl]-] | 23 | – | –
CCCCCN(CCCCC)S(=O)(=O)NC(=O)Nc1c(C(C)C)cccc1C(C)C [Example 64, Urea, N-[2,6-bis(1-methylethyl)phenyl]-N′-[(dipentylamino)sulfonyl]-] | 55.4 | – | –
CC(C)c1cccc(C(C)C)c1OC(=O)NS(=O)(=O)NC(c1ccccc1)C(C)C (stereo not drawn) [Example 65, Carbamic acid, [[((1-methylethyl)phenylmethyl)amino]sulfonyl]-, 2,6-bis(1-methylethyl)phenyl ester] | – | 16.4 | –
CC(C)c1cccc(C(C)C)c1OC(=O)NS(=O)(=O)N1CCCC1 [Example 66, Carbamic acid, (1-pyrrolidinylsulfonyl)-, 2,6-bis(1-methylethyl)phenyl ester] | – | < 10 | –
CCCCCCNS(=O)(=O)NC(=O)Oc1c(C(C)C)cccc1C(C)C [Example 67, Carbamic acid, [(hexylamino)sulfonyl]-, 2,6-bis(1-methylethyl)phenyl ester] | – | 13.8 | –
CC(C)CN(CC(C)C)S(=O)(=O)NC(=O)Nc1c(C(C)C)cccc1C(C)C [Example 68, Urea, N-[2,6-bis(1-methylethyl)phenyl]-N′-[[bis(2-methylpropyl)amino]-sulfonyl]-] | 34.3 | – | –
CCCCCCCCCCCCOS(=O)(=O)NC(=O)Nc1c(C(C)C)cccc1C(C)C [Example 69, Sulfamic acid, [[[2,6-bis(1-methylethyl)phenyl]amino]carbonyl]-, dodecyl ester] | 75.5 | – | –
CC(C)c1cccc(C(C)C)c1NC(=O)NS(=O)(=O)N1CCCC1 [Example 70, Urea, N-[2,6-bis(1-methylethyl)phenyl]-N′-(1-pyrrolidinylsulfonyl)-] | < 10 | – | –
CC(C)c1cccc(C(C)C)c1NC(=O)NS(=O)(=O)N1CCCCC1 [Example 71, Urea, N-[2,6-bis(1-methylethyl)phenyl]-N′-(1-piperidinylsulfonyl)-] | < 10 | – | –
CC(C)c1cccc(C(C)C)c1OC(=O)NS(=O)(=O)N1CCc2ccccc21 [Example 72, Carbamic acid, [(2,3-dihydro-1H-indol-1-yl)sulfonyl]-, 2,6-bis(1-methylethyl)-phenyl ester] | – | 14.1 | –
C=CCN(CC)S(=O)(=O)NC(=O)Nc1c(C(C)C)cccc1C(C)C [Example 73, Urea, N-[2,6-bis(1-methylethyl)phenyl]-N′-[[ethyl(2-propenyl)amino]-sulfonyl]-] | < 10 | – | –
CCCCCCCCCCN(CCCCCCCCCC)S(=O)(=O)NC(=O)Nc1c(C(C)C)cccc1C(C)C [Example 75, Urea, N-[2,6-bis (1-methylethyl)phenyl]-N′-[(didecylamino)sulfonyl]-] | – | – | Percent Inhibition at 10 μM: <10%
CCCCCCCCCCCCN(CCCCCCCCCCCC)S(=O)(=O)NC(=O)Nc1c(C(C)C)cccc1C(C)C [Example 76, Urea, N-[2,6-bis(1-methylethyl)phenyl]-N′-[(didodecylamino)sulfonyl]-] | < 10 | – | –
CCCN(CCC)S(=O)(=O)NC(=O)Nc1c(C(C)C)cccc1C(C)C [Example 77, Urea, N-[2,6-bis(1-methylethyl)phenyl]-N′-[(dipropylamino)sulfonyl]-] | < 10 | – | –
CC(C)c1cccc(C(C)C)c1NC(=O)NS(=O)(=O)N(C1CCCCC1)C1CCCCC1 [Example 78, Urea, N-[2,6-bis(1-methylethyl)phenyl]-N′-[(dicyclohexylamino)-sulfonyl]-] | 40.9 | – | –
CCCCCCCCCCCCOC(=O)NS(=O)(=O)Nc1c(OC)cc(OC)cc1OC [Example 79, Carbamic acid, [[(2,4,6-trimethoxyphenyl)amino]sulfonyl]-, dodecyl ester] | < 10 | – | –
CCCCCCCCCCCCCCCCCCN(C)S(=O)(=O)NC(=O)Nc1c(C(C)C)cccc1C(C)C [Example 80, Urea, N-[2,6-bis(1-methylethyl)phenyl]-N′-[(methyloctadecylamino)-sulfonyl]-] | < 10 | – | –
C=CCN(CC=C)S(=O)(=O)NC(=O)Nc1c(C(C)C)cccc1C(C)C [Example 81, Urea, N-[2,6-bis(1-methylethyl)phenyl]-N′-[(di-2-propenylamino)-sulfonyl]-] | < 10 | – | –
CC(C)c1cccc(C(C)C)c1NC(=O)NS(=O)(=O)N(C(C)C)C(C)(C)C [Example 82, Urea, N-[2,6-bis(1-methylethyl)phenyl]-N′-[[(1,1-dimethylethyl)(1-methylethyl)-amino]sulfonyl]-] | < 10 | – | –
CCC(C)N(C(C)CC)S(=O)(=O)NC(=O)Nc1c(C(C)C)cccc1C(C)C (stereo not drawn) [Example 83, Urea, N-[2,6-bis(1-methylethyl)phenyl]-N′-[[bis(1-methylpropyl)-amino]-sulfonyl]-] | 10.6 | – | –
